Assay results published in article PMC11855827, “High-Throughput Screening of Five Compound Libraries for Anthelmintic Activity and Toxicity Leads to the Discovery of Two Flavonoid Compounds” (International Journal of Molecular Sciences, 2025).
Like-named read-outs stand apart in the source and are kept apart here.

Test system: C. elegans
Assay: microbe, parasite or virus in culture
Conditions: Caenorhabditis elegans
[1] = 0 h, read-out: Percentage of motility inhibition 0 h, Table S2, C. elegans SS assay, 110 μM, 0 h, averages of 4 data points
[2] = 24 h, read-out: Percentage of motility inhibition 24 h, Table S2, C. elegans SS assay, 110 μM, 24 h, averages of 4 data points
[3] = 0 h, read-out: Percentage of motility inhibition 0 h
[4] = 24 h, read-out: Percentage of motility inhibition 24 h

Compound C=C[C@](C)(O)CC[C@@H]1[C@@]2(C)CCCC(C)(C)[C@@H]2CC[C@@]1(C)O [Sclareol] has an inhibition at 110 µM [1] of 28% and an inhibition at 110 µM [2] of 10%.

O=c1cc(-c2ccc(O)cc2)oc2cc(O)c(O)c(O)c12 [Scutellarein] gave an inhibition at 110 µM [3] of 49% and an inhibition at 110 µM [4] of 3%.

O=C(O)[C@H]1O[C@@H](Oc2cc3oc(-c4ccc(O)cc4)cc(=O)c3c(O)c2O)[C@H](O)[C@@H](O)[C@@H]1O [Scutellarin] was tested, and the inhibition at 110 µM [1] was 31% and the inhibition at 110 µM [2] was 1%.

Cc1ncc([N+](=O)[O-])n1CC(C)O (centres unmarked) [Secnidazole] gave an inhibition at 110 µM [3] of 26% and an inhibition at 110 µM [4] of 3%.

Work on C/C=C1/C[C@@H](C)[C@@](C)(O)C(=O)OCC2=CC[N+]3([O-])CC[C@@H](OC1=O)[C@@H]23 (some centres unmarked) [Senecionine N‐oxide] yielded an inhibition at 110 µM [1] of 39% and an inhibition at 110 µM [2] of 43%.

C/C=C1/C[C@@H](C)[C@@](C)(O)C(=O)OCC2=CCN3CC[C@@H](OC1=O)[C@@H]23 [Senecionine] was tested, and the inhibition at 110 µM [3] was 0% and the inhibition at 110 µM [4] was 24%.

C=C1C/C(=C/C)C(=O)O[C@@H]2CCN3CC=C(COC(=O)[C@]1(C)O)[C@H]23 [Seneciphylline] showed an inhibition at 110 µM [1] of 0% and an inhibition at 110 µM [2] of 1%.

In the case of COC(=O)C1=CO[C@@H](O[C@@H]2O[C@H](CO)[C@@H](O)[C@H](O)[C@H]2O)[C@H]2[C@@H]1[C@H](O)C[C@]2(C)O [Shanzhiside methyl ester], the inhibition at 110 µM [1] is reported as 32% and the inhibition at 110 µM [2] is reported as 38%.

In the case of CCCCC/C=C/C(=O)CCc1ccc(O)c(OC)c1 [Shogaol], the inhibition at 110 µM [1] is reported as 0% and the inhibition at 110 µM [2] is reported as 5%.

COc1cc(C2Oc3cc([C@H]4Oc5cc(O)cc(O)c5C(=O)[C@@H]4O)ccc3OC2CO)ccc1O (some centres unmarked) [Silibinin] was tested, and the inhibition at 110 µM [1] was 0% and the inhibition at 110 µM [2] was 0%.

Compound COc1cc([C@H]2Oc3cc([C@H]4Oc5cc(O)cc(O)c5C(=O)[C@@H]4O)ccc3O[C@@H]2CO)ccc1O [Silybin A] has an inhibition at 110 µM [1] of 22% and an inhibition at 110 µM [2] of 20%.

Work on COc1cc([C@@H]2[C@H]3CO[C@@]4(O)C(=O)[C@@H]2C=C([C@H]2Oc5cc(O)cc(O)c5C(=O)[C@@H]2O)[C@@H]34)ccc1O [Silydianin] yielded an inhibition at 110 µM [1] of 17% and an inhibition at 110 µM [2] of 4%.

For COc1ccc2c(O[C@@H]3C[C@H]4C(=O)N[C@]5(C(=O)NS(=O)(=O)C6CC6)C[C@H]5/C=C\CCCCN(C)C(=O)[C@@H]4C3)cc(-c3nc(C(C)C)cs3)nc2c1C [Simeprevir], the inhibition at 110 µM [1] was 2% and the inhibition at 110 µM [2] was 25%.

COc1ccc(-c2cc(=O)c3c(OC)c(OC)c(OC)cc3o2)cc1OC [Sinensetin] gave an inhibition at 110 µM [1] of 0% and an inhibition at 110 µM [2] of 0%.

COc1ccc2c(OC)c3ccoc3nc2c1OC [Skimmianine] gave an inhibition at 110 µM [1] of 0% and an inhibition at 110 µM [2] of 15%.

Compound COc1cccc(O)c1-c1cc(=O)c2c(O)c(OC)c(OC)c(OC)c2o1 [Skullcapflavone II] has an inhibition at 110 µM [3] of 4% and an inhibition at 110 µM [4] of 6%.

In the case of C[C@@H]1CC[C@@]2(NC1)O[C@H]1C[C@H]3[C@@H]4CC=C5C[C@@H](O[C@@H]6O[C@H](CO)[C@@H](O[C@@H]7O[C@@H](C)[C@H](O)[C@@H](O)[C@H]7O)[C@H](O)[C@H]6O[C@@H]6O[C@@H](C)[C@H](O)[C@@H](O)[C@H]6O)CC[C@]5(C)[C@H]4CC[C@]3(C)[C@H]1[C@@H]2C [Solamargine], the inhibition at 110 µM [1] is reported as 0% and the inhibition at 110 µM [2] is reported as 0%.

Compound C[C@H]1CC[C@@H]2[C@@H](C)[C@H]3[C@H](C[C@H]4[C@@H]5CC=C6C[C@@H](O)CC[C@]6(C)[C@H]5CC[C@]34C)N2C1 [Solanidine] has an inhibition at 110 µM [1] of 0% and an inhibition at 110 µM [2] of 0%.

With C[C@@H]1CC[C@@]2(NC1)O[C@H]1C[C@H]3[C@@H]4CC=C5C[C@@H](O)CC[C@]5(C)[C@H]4CC[C@]3(C)[C@H]1[C@@H]2C [Solasodine] the inhibition at 110 µM [1] was 12% and the inhibition at 110 µM [2] was 20%.
